Results published in US11124516B2, “Pyrrolo[1,2-A]pyrimidinyl carboxamide compounds and their use in the treatment of medical disorders” (Bial—Biotech Investments, Inc., priority 2016, dated 2021).

These compounds were tested against T1, glucocerebrosidase (Gcase) (Homo sapiens, UniProt P04062) (assay: Glucocerebrosidase (Gcase) activation assay, 4-methylumbelliferyl-beta-D-glucopyranoside substrate, fluorescence). Conditions: 0.25 h, pH 4.7, test compound at 0.1 μM, 10 nM GCase, 100 nM saposin C, read-out: Percent Gcase Activation 0.1 μM Test Compound.
T1 sequence (P04062 40-536): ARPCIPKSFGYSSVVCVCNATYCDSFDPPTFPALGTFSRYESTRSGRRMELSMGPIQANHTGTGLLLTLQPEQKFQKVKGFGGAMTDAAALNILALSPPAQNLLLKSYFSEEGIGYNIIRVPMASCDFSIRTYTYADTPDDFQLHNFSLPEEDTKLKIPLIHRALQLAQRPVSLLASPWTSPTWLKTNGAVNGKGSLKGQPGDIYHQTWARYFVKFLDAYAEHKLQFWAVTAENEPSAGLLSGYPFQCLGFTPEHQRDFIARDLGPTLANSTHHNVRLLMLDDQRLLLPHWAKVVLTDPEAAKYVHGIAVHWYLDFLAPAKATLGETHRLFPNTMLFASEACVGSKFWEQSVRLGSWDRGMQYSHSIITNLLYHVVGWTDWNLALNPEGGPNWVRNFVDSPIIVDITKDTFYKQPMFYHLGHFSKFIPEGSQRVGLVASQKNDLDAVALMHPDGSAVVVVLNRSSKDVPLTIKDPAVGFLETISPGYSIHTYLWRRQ
Assay type: biochemical
Experimental: The ability of exemplary compounds to activate glucocerebrosidase (Gcase) was measured.
A 484 μL aliquot of a 1.0 mg/mL solution of phosphatidylserine (PS) (Sigma P7769) in chloroform was evaporated under a stream of nitrogen for 1 hour. The lipid film was dissolved over 4 minutes of vigorous vortexing in 40 mL of 176 mM K2HPO4/50 mM citric acid (pH 4.7) containing 7.5 μL of triton X-100, resulting in a mixed micellar preparation with a composition of 0.32 mM triton and 0.37 mol % PS. 4-Methylumbelliferyl-beta-D-glucopyranoside (ACROS-337025000) was dissolved in the micellar solution to a final concentration of 2 mM for use as the reaction substrate.
Test compounds were diluted to the desired concentrations with dimethylsulfoxide (DMSO) from 10 mM stocks, and 0.41 μL of the DMSO compound mixture was added to 100 μL of micellar solution containing 10 nM GCase and 100 nM saposin C (Enzo ALX-201-262-C050). Pre-incubation was allowed to occur for 30 minutes at room temperature, after which the reaction was initiated by combining 25 μL of substrate solution with 25 μL of compound/GCase/saposin mixture. The reaction proceeded for 15 minutes at room temperature and was stopped by adding 150 μL of 1M glycine, pH 12.5. The endpoint of the reaction was monitored by measuring fluorescence intensity (excitation: 365 nm; emission: 440 nm) on a SpectraMax i3 instrument (Molecular Devices). Test compounds were screened at 1.0 and 0.1 μM final concentration, and subsequent 8-point dose response curves were obtained using 3-fold dilutions from a maximum final concentration of 5 μM.
For experiments in which the test compound was used at a concentration of 1.0 μM, the symbol “+” indicates less than 30% Gcase activation; the symbol “++” indicates Gcase activation in the range of 30% up to 60%; and the symbol “+++” indicates Gcase activation greater than 60%. For experiments in which the test compound was used at a concentration of 0.1 μM, the symbol “*” indicates less than 10% Gcase activation; the symbol “**” indicates Gcase activation in the range of 10% up to 20%; and the symbol “***” indicates greater than 20% Gcase activation.

Row | Compound | activation at 0.1 µM [%]
1 | Cc1cc(C)n2ccc(C(=O)NC(CO)C34CC5CC(CC(C5)C3)C4)c2n1 (stereo not shown) [IV-34] | < 10
2 | Cc1cc(C)n2ccc(C(=O)N[C@@H](C)c3nc4ccccc4n3C)c2n1 [IV-37] | < 10
3 | Cc1cc(C)n2ccc(C(=O)NC(C)c3ccc(-c4cccnc4)cc3)c2n1 (stereo not shown) [IV-43] | < 10
4 | CCC(NC(=O)c1ccn2c(C)cc(C)nc12)c1ncccc1C (stereo not shown) [IV-57] | < 10
5 | COc1ccccc1C(C)NC(=O)c1ccn2c(C)cc(C)nc12 (stereo not shown) [IV-60] | > 20
6 | Cc1cc(C)n2ccc(C(=O)NC(C)c3ccccc3C)c2n1 (stereo not shown) [IV-63] | > 20
7 | Cc1cc(C)n2ccc(C(=O)NC(C)c3ncc(-c4ccccc4)o3)c2n1 (stereo not shown) [IV-65] | 10 to 20
8 | Cc1cc(C)n2ccc(C(=O)NC(C)c3ccccc3-n3cccn3)c2n1 (stereo not shown) [IV-67] | < 10
9 | Cc1cc(C)n2ccc(C(=O)NC(C)c3ccc(-n4cccn4)cc3)c2n1 (stereo not shown) [IV-68] | 10 to 20
10 | Cc1cc(C)n2ccc(C(=O)NC(C)c3nc(C4CCCCC4)no3)c2n1 (stereo not shown) [IV-69] | 10 to 20
11 | Cc1cc(C)n2ccc(C(=O)NC(C)c3ccccc3-c3ccccc3)c2n1 (stereo not shown) [IV-70] | < 10
12 | CCC(NC(=O)c1ccn2c(C)cc(C)nc12)C12CC3CC(C1)C(C3)C2 (stereo not shown) [IV-72] | > 20
13 | COc1ccc(F)cc1C(C)NC(=O)c1ccn2c(C)cc(C)nc12 (stereo not shown) [IV-74] | > 20
14 | Cc1cc(C)n2ccc(C(=O)NC(C)c3cccc(-n4cccn4)c3)c2n1 (stereo not shown) [IV-75] | 10 to 20
15 | Cc1cc(C)n2ccc(C(=O)NC(C)c3nnn(C4CC4)n3)c2n1 (stereo not shown) [IV-76] | < 10
16 | Cc1cc(C)n2ccc(C(=O)NC(C)c3ccc(-c4ccccc4)cc3)c2n1 (stereo not shown) [IV-77] | > 20
17 | Cc1cc(C)n2ccc(C(=O)NC(C)c3nnn(-c4ccccc4)n3)c2n1 (stereo not shown) [IV-80] | < 10
18 | Cc1cc(C)n2ccc(C(=O)NC(Cc3ccccc3)c3ccccc3)c2n1 (stereo not shown) [IV-81] | > 20
19 | Cc1cc(C)n2ccc(C(=O)NC(C)C3COc4ccccc4O3)c2n1 (stereo not shown) [IV-82] | < 10

The remaining lines, values ahead:

Row | activation at 0.1 µM [%] | Compound
20 | < 10 | COCc1cc(C(F)F)n2ccc(C(=O)NC3(c4cc(F)cc(F)c4)CC3)c2n1 [III-9]
21 | < 10 | CCCCO[C@H]1CC[C@H](NC(=O)c2ccn3c(C)cc(C4CCOCC4)nc23)CC1 [III-32]
22 | 10 to 20 | Cc1cc(-c2ncccn2)nc2c(C(=O)NC(C)(C)C3CC3)ccn12 [III-43]
23 | < 10 | Cc1cn2ccc(C(=O)NC(C)(C)C3CC3)c2nc1-c1ccc(F)cc1 [III-50]
24 | < 10 | COCC(NC(=O)c1ccn2c(C)cc(C)nc12)C1CC1 (stereo not shown) [III-66]
25 | < 10 | COCC(C)(NC(=O)c1ccn2c(C)cc(C)nc12)c1ccccc1 (stereo not shown) [III-68]
26 | 10 to 20 | Cc1cc(C)n2ccc(C(=O)NC(C)C3CCCC3)c2n1 (stereo not shown) [III-69]

Same assay, conditions: 0.25 h, pH 4.7, test compound at 1.0 μM, 10 nM GCase, 100 nM saposin C, read-out: Percent Gcase Activation 1 μM Test Compound

Row | Compound | activation at 1 µM [%]
27 | Cc1cc(C)n2ccc(C(=O)NC(CO)C34CC5CC(CC(C5)C3)C4)c2n1 (stereo not shown) [IV-34] | 30 to 60
28 | Cc1cc(C)n2ccc(C(=O)N[C@@H](C)c3nc4ccccc4n3C)c2n1 [IV-37] | < 30
29 | Cc1cc(C)n2ccc(C(=O)NC(C)c3ccc(-c4cccnc4)cc3)c2n1 (stereo not shown) [IV-43] | 30 to 60
30 | CCC(NC(=O)c1ccn2c(C)cc(C)nc12)c1ncccc1C (stereo not shown) [IV-57] | < 30
31 | COc1ccccc1C(C)NC(=O)c1ccn2c(C)cc(C)nc12 (stereo not shown) [IV-60] | > 60
32 | Cc1cc(C)n2ccc(C(=O)NC(C)c3ccccc3C)c2n1 (stereo not shown) [IV-63] | > 60
33 | Cc1cc(C)n2ccc(C(=O)NC(C)c3ncc(-c4ccccc4)o3)c2n1 (stereo not shown) [IV-65] | > 60
34 | Cc1cc(C)n2ccc(C(=O)NC(C)c3ccccc3-n3cccn3)c2n1 (stereo not shown) [IV-67] | 30 to 60
35 | Cc1cc(C)n2ccc(C(=O)NC(C)c3ccc(-n4cccn4)cc3)c2n1 (stereo not shown) [IV-68] | > 60
36 | Cc1cc(C)n2ccc(C(=O)NC(C)c3nc(C4CCCCC4)no3)c2n1 (stereo not shown) [IV-69] | > 60
37 | Cc1cc(C)n2ccc(C(=O)NC(C)c3ccccc3-c3ccccc3)c2n1 (stereo not shown) [IV-70] | > 60
38 | CCC(NC(=O)c1ccn2c(C)cc(C)nc12)C12CC3CC(C1)C(C3)C2 (stereo not shown) [IV-72] | > 60
39 | COc1ccc(F)cc1C(C)NC(=O)c1ccn2c(C)cc(C)nc12 (stereo not shown) [IV-74] | > 60
40 | Cc1cc(C)n2ccc(C(=O)NC(C)c3cccc(-n4cccn4)c3)c2n1 (stereo not shown) [IV-75] | > 60
41 | Cc1cc(C)n2ccc(C(=O)NC(C)c3nnn(C4CC4)n3)c2n1 (stereo not shown) [IV-76] | < 30
42 | Cc1cc(C)n2ccc(C(=O)NC(C)c3ccc(-c4ccccc4)cc3)c2n1 (stereo not shown) [IV-77] | > 60
43 | Cc1cc(C)n2ccc(C(=O)NC(C)c3nnn(-c4ccccc4)n3)c2n1 (stereo not shown) [IV-80] | < 30
44 | Cc1cc(C)n2ccc(C(=O)NC(Cc3ccccc3)c3ccccc3)c2n1 (stereo not shown) [IV-81] | > 60

Other lines, results leading:

Row | activation at 1 µM [%] | Compound
45 | < 30 | COCc1cc(C(F)F)n2ccc(C(=O)NC3(c4cc(F)cc(F)c4)CC3)c2n1 [III-9]
46 | 30 to 60 | CCCCO[C@H]1CC[C@H](NC(=O)c2ccn3c(C)cc(C4CCOCC4)nc23)CC1 [III-32]
47 | > 60 | Cc1cc(-c2ncccn2)nc2c(C(=O)NC(C)(C)C3CC3)ccn12 [III-43]
48 | > 60 | Cc1cn2ccc(C(=O)NC(C)(C)C3CC3)c2nc1-c1ccc(F)cc1 [III-50]
49 | < 30 | COCC(NC(=O)c1ccn2c(C)cc(C)nc12)C1CC1 (stereo not shown) [III-66]
50 | > 60 | COCC(C)(NC(=O)c1ccn2c(C)cc(C)nc12)c1ccccc1 (stereo not shown) [III-68]
51 | > 60 | Cc1cc(C)n2ccc(C(=O)NC(C)C3CCCC3)c2n1 (stereo not shown) [III-69]

Same assay, conditions: test compound at 1.0 μM; 10 nM GCase, 100 nM saposin C, pH 4.7

Row | Percent Gcase Activation 1 μM Test Compound | Compound
52 | +++ (Gcase activation greater than 60%) | Cc1cc(C)n2ccc(C(=O)NC(C)C3COc4ccccc4O3)c2n1 (stereo not shown) [IV-82]
